Data: ChEMBL document CHEMBL4011611, “Plumbagin reduces osteopontin-induced invasion through inhibiting the Rho-associated kinase signaling pathway in A549 cells and suppresses osteopontin-induced lung metastasis in BalB/c mice” (Bioorg Med Chem Lett, 2017)
Active and inactive are the calls of the source. No cut-off for these calls is given here.

How the values were obtained:
[1] = test system: A549; assay: Inhibition of FAK/AKT/ROCK in human A549 cells assessed as reduction in osteopontin-induced LIMK1/2 phosphorylation after 24 hrs by Western blot method; type: cell-based
[2] = Cytotoxicity against human A549 cells after 24 hrs by MTT assay; type: cell-based; conditions: read-out: MNCC
[3] = species: Homo sapiens; assay: Inhibition of FAK/AKT/ROCK in human H1299 cells assessed as reduction in osteopontin-induced cell motility at 1 to 2 uM preincubated for 30 mins followed by osteopontin addition measured after 24 hrs by Diff-quick staining based matrigel-mediated Boyden chamber assay
[4] = test system: A549; assay: Inhibition of FAK/AKT/ROCK in human A549 cells assessed as reduction in osteopontin-induced cell motility at 1 uM preincubated for 30 mins followed by osteopontin addition measured after 24 hrs by Diff-quick staining based matrigel-mediated Boyden chamber assay relative to control
[5] = test system: A549; assay: Inhibition of FAK/AKT/ROCK in human A549 cells assessed as reduction in osteopontin-induced cell invasion at 1 uM preincubated for 30 mins followed by osteopontin addition measured after 24 hrs by Diff-quick staining based matrigel-mediated Boyden chamber assay relative to control
[6] = target: Focal adhesion kinase 1 (Homo sapiens) (UniProt Q05397); assay: Inhibition of osteopontin-induced FAK phosphorylation in human A549 cells at 1 to 2 uM after 15 mins by Western blot method; type: cell-based
[7] = test system: A549; assay: Inhibition of FAK/AKT/ROCK in human A549 cells assessed as reduction in osteopontin-induced cell invasion at 2 uM preincubated for 30 mins followed by osteopontin addition measured after 24 hrs by Diff-quick staining based matrigel-mediated Boyden chamber assay relative to control
[8] = test system: A549; assay: Anti-invasive activity in human A549 cells assessed as reduction in osteopontin-induced ROCK1 expression after 24 hrs by Western blot method; type: functional, cell-based
[9] = test system: A549; assay: Anticancer activity against human A549 cells xenografted in BalB/c nude mouse assessed as reduction in osteopontin-induced lung metastasis at 5 mg/kg, ip administered once daily for 8 weeks by India ink staining based method; type: functional, organism-based
[10] = test system: A549; assay: Inhibition of FAK/AKT/ROCK in human A549 cells assessed as reduction in osteopontin-induced lamellipodia formation at 2 uM after 24 hrs by rhodamine phalloidin/DAPI staining based confocal microscopic analysis; type: cell-based
[11] = test system: A549; assay: Effect on total FAK expression levels in human A549 cells at 1 to 2 uM measured after 15 mins by Western blot method; type: ADME, cell-based; conditions: a549, 0.25 h
[12] = test system: A549; assay: Inhibition of FAK/AKT/ROCK in human A549 cells assessed as reduction in osteopontin-induced cofilin phosphorylation after 24 hrs by Western blot method; type: cell-based
[13] = target: RAC-alpha serine/threonine-protein kinase (Homo sapiens) (UniProt P31749); assay: Inhibition of osteopontin-induced AKT phosphorylation in human A549 cells at 1 to 2 uM after 15 mins by Western blot method; type: cell-based
[14] = test system: A549; assay: Cytotoxicity against human A549 cells assessed as reduction in cell viability at 2 to 8 uM after 24 hrs by MTT assay; type: cell-based; conditions: a549, 24 h
[15] = test system: A549; assay: Effect on total LIMK2 expression level in human A549 cells at 1 to 2 uM after 24 hrs by Western blot method; type: ADME, cell-based; conditions: a549, 24 h
[16] = test system: A549; assay: Inhibition of FAK/AKT/ROCK in human A549 cells assessed as reduction in osteopontin-induced cell motility at 2 uM preincubated for 30 mins followed by osteopontin addition measured after 24 hrs by Diff-quick staining based matrigel-mediated Boyden chamber assay relative to control
[17] = species: Homo sapiens; assay: Inhibition of FAK/AKT/ROCK in human H1299 cells assessed as reduction in osteopontin-induced cell invasion at 1 to 2 uM preincubated for 30 mins followed by osteopontin addition measured after 24 hrs by Diff-quick staining based matrigel-mediated Boyden chamber assay
[18] = test system: A549; assay: Effect on total AKT expression level in human A549 cells at 1 to 2 uM after 15 mins by Western blot method; type: ADME, cell-based; conditions: a549, 0.25 h
[19] = test system: Mus musculus; assay: Toxicity in BalB/c nude mouse assessed as change in body weight at 5 mg/kg, ip administered once daily for 8 weeks measured every week of compound dosing; type: organism-based; conditions: in vivo, 1344 h
[20] = test system: A549; assay: Effect on total cofilin protein expression level in human A549 cells at 1 to 2 uM after 24 hrs by Western blot method; type: ADME, cell-based; conditions: a549, 24 h

Chain of Focal adhesion kinase 1 (Homo sapiens) (Q05397 2-1052 limits assumed): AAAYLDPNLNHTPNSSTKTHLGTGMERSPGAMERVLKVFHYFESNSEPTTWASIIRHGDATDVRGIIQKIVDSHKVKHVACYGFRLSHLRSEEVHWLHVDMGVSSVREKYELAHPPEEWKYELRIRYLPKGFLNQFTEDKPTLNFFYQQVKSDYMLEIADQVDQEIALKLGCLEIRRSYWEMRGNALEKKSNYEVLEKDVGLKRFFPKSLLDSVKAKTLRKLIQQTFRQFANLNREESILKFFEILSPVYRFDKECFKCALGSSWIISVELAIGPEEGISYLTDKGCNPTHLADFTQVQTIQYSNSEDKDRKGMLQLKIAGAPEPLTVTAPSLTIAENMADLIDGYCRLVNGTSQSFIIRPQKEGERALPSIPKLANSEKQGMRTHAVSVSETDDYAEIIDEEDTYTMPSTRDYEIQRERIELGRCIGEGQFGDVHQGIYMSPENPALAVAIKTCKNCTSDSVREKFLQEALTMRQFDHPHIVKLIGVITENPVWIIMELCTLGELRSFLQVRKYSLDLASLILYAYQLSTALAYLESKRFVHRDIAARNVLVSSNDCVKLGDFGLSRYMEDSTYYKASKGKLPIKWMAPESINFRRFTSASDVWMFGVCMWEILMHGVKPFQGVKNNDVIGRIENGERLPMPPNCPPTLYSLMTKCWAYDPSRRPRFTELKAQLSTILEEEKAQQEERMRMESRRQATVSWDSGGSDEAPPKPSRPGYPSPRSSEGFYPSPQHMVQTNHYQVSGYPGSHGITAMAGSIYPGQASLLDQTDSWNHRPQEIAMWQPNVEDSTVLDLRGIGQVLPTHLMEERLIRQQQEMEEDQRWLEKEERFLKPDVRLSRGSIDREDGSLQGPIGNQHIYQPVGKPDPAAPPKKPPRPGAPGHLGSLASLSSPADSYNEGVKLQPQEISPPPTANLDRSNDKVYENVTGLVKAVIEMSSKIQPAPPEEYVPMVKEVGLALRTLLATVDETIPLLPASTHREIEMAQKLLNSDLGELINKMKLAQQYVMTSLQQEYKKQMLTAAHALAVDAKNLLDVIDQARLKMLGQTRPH
Chain of RAC-alpha serine/threonine-protein kinase (Homo sapiens) (P31749 whole entry): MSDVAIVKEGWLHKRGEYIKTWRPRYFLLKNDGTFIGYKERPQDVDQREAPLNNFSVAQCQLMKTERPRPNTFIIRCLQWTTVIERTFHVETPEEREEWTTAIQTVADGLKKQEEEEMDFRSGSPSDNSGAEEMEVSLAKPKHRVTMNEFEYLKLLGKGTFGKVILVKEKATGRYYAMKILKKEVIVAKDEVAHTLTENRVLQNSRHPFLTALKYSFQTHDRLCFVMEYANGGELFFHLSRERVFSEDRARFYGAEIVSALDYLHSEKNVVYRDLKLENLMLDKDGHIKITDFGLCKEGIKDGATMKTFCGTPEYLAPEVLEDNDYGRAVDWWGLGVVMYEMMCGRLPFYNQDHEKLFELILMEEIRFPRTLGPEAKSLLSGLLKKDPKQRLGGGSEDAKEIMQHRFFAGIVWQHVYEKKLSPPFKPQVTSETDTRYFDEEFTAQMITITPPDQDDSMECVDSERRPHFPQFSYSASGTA

CC1=CC(=O)c2c(O)cccc2C1=O [PLUMBAGIN]
inhibition [1]: Dose-dependent effect
MNTC at 24 h [2]: ≤ 2000 nM
inhibition [3]: Active
inhibition [4]: 52%
inhibition [5]: 38%
inhibition [6]: Active
inhibition [7]: 67%
Activity [8]: Dose-dependent effect
Activity [9]: Active
inhibition [10]: Active
Activity [11]: Non-Toxic
inhibition [12]: Dose-dependent effect
inhibition [13]: Active
Activity [14]: Dose-dependent effect
Activity [15]: Non-Toxic
inhibition [16]: 74%
inhibition [17]: Active
Activity [18]: Non-Toxic
Activity [19]: Non-Toxic
Activity [20]: Non-Toxic
